IC50 and inhibition data for 18 compounds are collected here from ChEMBL document CHEMBL1131391, “Identification and characterization of m4 selective muscarinic antagonists” (Bioorg Med Chem Lett, 1998).

In test [1] the target is T1, Muscarinic acetylcholine receptor M4 (Homo sapiens, UniProt P08173).
T1 sequence (P08173 whole entry): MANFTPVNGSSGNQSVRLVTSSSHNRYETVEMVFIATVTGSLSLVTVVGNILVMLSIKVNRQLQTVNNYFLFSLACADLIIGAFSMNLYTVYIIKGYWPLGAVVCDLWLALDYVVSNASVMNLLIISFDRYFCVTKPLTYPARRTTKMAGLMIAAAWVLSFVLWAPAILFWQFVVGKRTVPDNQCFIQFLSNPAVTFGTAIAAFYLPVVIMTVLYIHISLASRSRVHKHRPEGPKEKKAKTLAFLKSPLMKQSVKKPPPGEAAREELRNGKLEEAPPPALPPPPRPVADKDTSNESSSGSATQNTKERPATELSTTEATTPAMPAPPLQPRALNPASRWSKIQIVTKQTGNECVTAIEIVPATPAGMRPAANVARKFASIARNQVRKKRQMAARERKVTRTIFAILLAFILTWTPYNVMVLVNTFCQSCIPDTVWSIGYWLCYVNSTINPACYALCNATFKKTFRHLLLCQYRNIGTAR
Nature of the test: Evaluated for its binding affinity at human muscarinic receptor m4 by the displacement of [3H]NMS binding using membranes from transfected chinese hamster ovarian cell.

In test [2] the target is T2, Muscarinic acetylcholine receptor M2 (Homo sapiens, UniProt P08172).
T2 sequence (P08172 whole entry): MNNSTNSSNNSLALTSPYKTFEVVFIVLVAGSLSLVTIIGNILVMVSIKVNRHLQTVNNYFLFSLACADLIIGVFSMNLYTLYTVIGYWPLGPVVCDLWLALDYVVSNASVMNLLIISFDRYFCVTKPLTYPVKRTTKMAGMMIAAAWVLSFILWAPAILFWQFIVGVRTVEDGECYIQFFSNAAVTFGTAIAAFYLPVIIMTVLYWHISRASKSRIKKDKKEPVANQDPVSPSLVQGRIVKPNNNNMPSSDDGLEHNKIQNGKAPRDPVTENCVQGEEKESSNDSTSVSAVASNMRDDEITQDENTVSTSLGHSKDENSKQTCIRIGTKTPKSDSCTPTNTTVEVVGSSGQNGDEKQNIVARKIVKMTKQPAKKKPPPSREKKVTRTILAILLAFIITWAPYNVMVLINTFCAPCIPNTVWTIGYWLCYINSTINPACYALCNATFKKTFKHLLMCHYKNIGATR
Nature of the test: Evaluated for its binding affinity at human muscarinic receptor m2 by displacement of [3H]NMS binding using membranes from transfected chinese hamster ovarian cell. On the technique in general: In a radioligand displacement assay an active substance lowers the binding of a labelled ligand.

Test [3] deals with T3, Muscarinic acetylcholine receptor M3 (Homo sapiens, UniProt P20309). Nature of the test: Evaluated for its binding affinity at human muscarinic receptor m3 by the displacement of [3H]NMS binding using membranes from transfected chinese hamster ovarian cell. In kind it is cell-based.
Target sequence in this assay (P20309 whole entry): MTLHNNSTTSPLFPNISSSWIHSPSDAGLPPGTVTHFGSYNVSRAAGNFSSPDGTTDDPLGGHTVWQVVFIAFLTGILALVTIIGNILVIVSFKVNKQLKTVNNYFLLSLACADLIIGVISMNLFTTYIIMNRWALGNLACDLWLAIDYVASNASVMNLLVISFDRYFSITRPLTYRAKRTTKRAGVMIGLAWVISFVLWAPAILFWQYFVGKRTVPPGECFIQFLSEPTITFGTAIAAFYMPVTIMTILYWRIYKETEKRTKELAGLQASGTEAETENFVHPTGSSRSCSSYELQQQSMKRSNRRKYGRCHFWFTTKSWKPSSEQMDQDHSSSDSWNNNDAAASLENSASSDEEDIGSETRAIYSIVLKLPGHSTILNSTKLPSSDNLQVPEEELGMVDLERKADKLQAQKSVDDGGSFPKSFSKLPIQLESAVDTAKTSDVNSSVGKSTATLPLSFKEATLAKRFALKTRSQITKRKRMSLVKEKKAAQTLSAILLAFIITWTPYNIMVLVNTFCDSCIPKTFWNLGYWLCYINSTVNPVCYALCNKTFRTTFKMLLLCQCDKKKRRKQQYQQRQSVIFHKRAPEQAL
In test [4] the target is T4, Muscarinic acetylcholine receptor M5 (Homo sapiens, UniProt P08912).
T4 sequence (P08912 whole entry): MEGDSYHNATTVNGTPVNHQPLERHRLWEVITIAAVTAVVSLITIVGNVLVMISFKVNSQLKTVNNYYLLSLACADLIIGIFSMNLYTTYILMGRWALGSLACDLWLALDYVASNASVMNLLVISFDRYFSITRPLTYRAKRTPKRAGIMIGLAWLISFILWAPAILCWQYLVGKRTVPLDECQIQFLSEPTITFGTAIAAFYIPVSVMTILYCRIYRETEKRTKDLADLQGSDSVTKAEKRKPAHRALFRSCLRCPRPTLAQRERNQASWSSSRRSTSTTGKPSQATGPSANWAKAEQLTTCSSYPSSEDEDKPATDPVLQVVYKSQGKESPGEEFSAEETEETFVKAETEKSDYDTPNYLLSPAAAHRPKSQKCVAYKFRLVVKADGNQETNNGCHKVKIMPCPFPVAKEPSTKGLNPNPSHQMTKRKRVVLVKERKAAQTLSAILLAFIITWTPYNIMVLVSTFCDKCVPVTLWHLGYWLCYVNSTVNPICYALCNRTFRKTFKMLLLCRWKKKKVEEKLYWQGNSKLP
In words: Evaluated for its binding affinity at human muscarinic receptor m5 by the displacement of [3H]NMS binding using membranes from transfected chinese hamster ovarian cell.

The target of test [5] is T5, Muscarinic acetylcholine receptor M1 (Homo sapiens, UniProt P11229).
T5 sequence (P11229 whole entry): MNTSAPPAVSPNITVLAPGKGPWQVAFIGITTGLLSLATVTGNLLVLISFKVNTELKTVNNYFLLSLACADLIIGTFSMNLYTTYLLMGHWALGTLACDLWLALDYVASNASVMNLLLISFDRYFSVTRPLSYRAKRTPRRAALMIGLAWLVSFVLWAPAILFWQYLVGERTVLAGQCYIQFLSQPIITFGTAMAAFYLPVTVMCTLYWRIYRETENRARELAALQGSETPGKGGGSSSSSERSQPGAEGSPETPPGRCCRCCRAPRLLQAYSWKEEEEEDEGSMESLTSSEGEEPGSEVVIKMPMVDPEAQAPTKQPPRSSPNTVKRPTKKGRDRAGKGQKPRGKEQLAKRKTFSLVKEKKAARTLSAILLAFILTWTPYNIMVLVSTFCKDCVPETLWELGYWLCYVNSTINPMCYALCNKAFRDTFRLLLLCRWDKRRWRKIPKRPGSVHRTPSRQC
In words: Evaluated for its binding affinity at human muscarinic receptor m1 by displacement of [3H]NMS binding using membranes in transfected chinese hamster ovarian cell. The format is cell-based.

In test [6] the target is T3, Muscarinic acetylcholine receptor M3. In words: Compound was evaluated for its binding affinity at human muscarinic receptor Hm3 by the displacement of [3H]NMS radioligand using membranes from transfected chinese hamster ovarian cell at 100 nM concentration.
Target sequence in this assay (P20309 whole entry, looked up): as the sequence (P20309 whole entry) above
For test [7], the target named is T6, Muscarinic acetylcholine receptor M5 (Homo sapiens) (UniProt P08912).
T6 sequence (whole entry): T4 sequence (P08912 whole entry)
In words: Compound was evaluated for its binding affinity at human muscarinic receptor Hm5 by the displacement of [3H]NMS radioligand using membranes from transfected chinese hamster ovarian cell at 100 nM concentration.

Test [8] concerns the target T6, Muscarinic acetylcholine receptor M5 (Homo sapiens). Nature of the test: Compound was evaluated for its binding affinity at human muscarinic receptor Hm5 by the displacement of [3H]-NMS radioligand using membranes from transfected chinese hamster ovarian cell at 1000 nM concentration.
In test [9] the target is T7, Muscarinic acetylcholine receptor M4 (Homo sapiens) (UniProt P08173).
T7 sequence (whole entry): T1 sequence (P08173 whole entry)
In words: Compound was evaluated for its binding affinity at human muscarinic receptor Hm4 by the displacement of [3H]-NMS radioligand using membranes from transfected chinese hamster ovarian cell at 1000 nM concentration.

In test [10] the target is T8, Muscarinic acetylcholine receptor M2 (Homo sapiens) (UniProt P08172).
T8 sequence (whole entry): T2 sequence (P08172 whole entry)
In words: Compound was evaluated for its binding affinity at human muscarinic receptor m2 by the displacement of [3H]NMS radioligand using membranes from transfected chinese hamster ovarian cell at 1000 nM concentration.

The target of test [11] is T3, Muscarinic acetylcholine receptor M3. Nature of the test: Compound was evaluated for its binding affinity at human muscarinic receptor Hm3 by the displacement of [3H]NMS radioligand using membranes from transfected chinese hamster ovarian cell at 1000 nM concentration.
Target sequence in this assay (P20309 whole entry, looked up): as the sequence (P20309 whole entry) above
In test [12] the target is T8, Muscarinic acetylcholine receptor M2 (Homo sapiens). In words: Compound was evaluated for its binding affinity at human muscarinic receptor m2 by displacement of [3H]NMS radioligand using membranes from transfected chinese hamster ovarian cell at 100 nM concentration.
The target in test [13] is T7, Muscarinic acetylcholine receptor M4 (Homo sapiens). Nature of the test: Compound was evaluated for its binding affinity at human muscarinic receptor Hm4 by the displacement of [3H]NMS radioligand using membranes from transfected chinese hamster ovarian cell at 100 nM concentration.

Where only a bound is given, the exact number is not on record here.

One may read the IC50 as the midpoint of a concentration-inhibition curve. For the compound `COc1cc2c(cc1OC)C1Oc3ccc4[nH]c(C)cc4c3CN1CC2` (stereo unspecified), the half-inhibitory concentration (IC50) in test [1] was determined as 4.74 µM; in [2] it was 14.7 µM; in test [3], 32.6 µM; in test [4] it was 43.5 µM; in [5] it was 32.7 µM.

In the case of `CCOC(=O)c1c(C)[nH]c2ccc3c(c12)CN1CCc2cccc(C)c2C1O3` (stereo unspecified), the IC50 in test [1] was 1.47 µM; in test [2] it was less than 1 µM; in [3] it was 2.83 µM; in test [4], 1.73 µM; in test [5] it was 6.11 µM.

For the compound `CCOC(=O)c1c[nH]c2ccc3c(c12)CN1CCc2cc(OC)ccc2C1O3` (stereo unspecified), the 50% inhibitory concentration (IC50) in test [1] came to 0.334 µM; in [2], 4.56 µM; in test [3] it was 3.7 µM; in test [4], 6 µM; in test [5], 5.62 µM.

With `CCOC(=O)c1c(C)[nH]c2ccc3c(c12)CN1CCc2cc(Oc4ccccc4)ccc2C1O3` (stereo unspecified), the IC50 in test [1] is 2.63 µM; in test [2] it was 1.65 µM; in test [3] it was 3.07 µM; in [4], 2.03 µM; in [5], 1.96 µM.

For the compound `COC(=O)c1c(C)[nH]c2ccc3c(c12)CN1CCc2ccccc2C1O3` (stereo unspecified), the IC50 in [1] was found to be 9.93 µM; in test [2], 4.66 µM; in test [3] it was 12.6 µM; in test [4], 5.76 µM; in test [5], 7.12 µM.

One may read the inhibition as the share of the control response that was lost under treatment. Low values mean a response near the control, high ones a response far below the control. Turning to `CCOC(=O)c1c(C)[nH]c2ccc3c(c12)C[N+]1(C)CCc2cc(OC)ccc2C1O3` (stereo unspecified), the inhibition was found to be 0% in [6]; 0.9% in test [7]; 1.6% in [8]; 19.9% in [9]; 29.9% in test [10]; 0% in test [11]. In addition, the inhibition in [12] is 14.7%; in test [13], 0%.

Consider `CC1OC(=O)[C@H]2C[C@H]3CCCC[C@@H]3[C@@H](/C=C/C3CCC[C@H](C)N3C)[C@@H]12` (single isomer, unassigned) [HIMBACINE], for which the half-maximal inhibitory concentration (IC50) in test [2] was 0.0175 µM; in [4], 1.02 µM; in [5], 0.548 µM.

For `CCOC(=O)c1c(C)[nH]c2ccc3c(c12)CN1CCc2cc(OCC)ccc2C1O3` (stereo unspecified), the IC50 in test [1] is 1.62 µM; in [2] it was 2.56 µM; in test [3], 2.63 µM; in test [4] it was 8.62 µM; in [5], 4.25 µM.

Consider `CCOC(=O)c1c(C)[nH]c2ccc3c(c12)CN1CCc2ccccc2C1O3` (stereo unspecified), for which the IC50 in [1] is 3.71 µM; in test [2], 2.68 µM; in test [3] it was 5.49 µM; in [4], 4.19 µM; in test [5], 5.01 µM.

In the case of `CCOC(=O)c1c[nH]c2ccc3c(c12)CN1CCc2cc(OC)c(OC)cc2C1O3` (stereo unspecified), the IC50 in test [1] was found to be 1.5 µM; in test [2], 7.7 µM; in [3], 10.3 µM; in test [4], 47.4 µM; in test [5], 8.22 µM.

Turning to `CCOC(=O)c1c(C)[nH]c2ccc3c(c12)CN1CCc2cc(OC)ccc2C1O3` (stereo unspecified), the IC50 in test [1] turned out to be 0.0907 µM; in test [2] it was 3.44 µM; in test [3], 0.95 µM; in test [4], 7.41 µM; in test [5] it was 6.56 µM.

For the compound `COc1ccc2c(c1)CCN1Cc3c(ccc4[nH]c(C)c(C(=O)OC(C)C)c34)OC21` (stereo unspecified), the IC50 in [1] was 2.05 µM; in [2], 2.64 µM; in test [3], 2.82 µM; in test [4], 4.74 µM; in test [5], 4.06 µM.

Turning to `COC(=O)c1c(C)[nH]c2ccc3c(c12)CN1CCc2cc(OC)ccc2C1O3` (stereo unspecified), the IC50 in [1] was found to be 0.501 µM; in [2], 13.1 µM; in test [3], 3.39 µM; in [4], 4.09 µM; in test [5], 3.79 µM.

`CCOC(=O)c1c(C)[nH]c2ccc3c(c12)CN1CCc2ccc(OC)cc2C1O3` (stereo unspecified): the IC50 in test [1] is 6.03 µM; in test [2] it was 3 µM; in test [3], 10.8 µM; in [4], 8.21 µM; in [5] it was 9.02 µM.

Regarding `COc1ccc2c(c1)CCN1Cc3c(ccc4[nH]c(C)cc34)OC21` (stereo unspecified), the IC50 in [1] turned out to be 9.74 µM; in test [2] it was 1.15 µM; in test [3] it was 15.3 µM; in test [4], 18 µM; in test [5], 10.8 µM.

Turning to `CCCOC(=O)c1c(C)[nH]c2ccc3c(c12)CN1CCc2cc(OC)ccc2C1O3` (stereo unspecified), the IC50 in test [1] came to 0.36 µM; in test [2], 1.91 µM; in [3], 1.48 µM; in test [4], 3.81 µM; in test [5] it was 1.96 µM.

As to `CCOC(=O)c1c(C)[nH]c2ccc3c(c12)CN1CCc2cc(C)ccc2C1O3` (stereo unspecified), the IC50 in test [1] is 0.465 µM; in [2], 9.52 µM; in [3], 2.72 µM; in test [4], 3.88 µM; in test [5], 3.28 µM.

Turning to `CCOC(=O)c1c(C)[nH]c2ccc3c(c12)CN1CCc2cc(OC)c(OC)cc2C1O3` (stereo unspecified), the IC50 stood at 0.301 µM in [1]; 9.34 µM in test [2]; 1.62 µM in test [3]; 26.6 µM in test [4]; 12.9 µM in test [5].
